What was measured:
USP1-UAF1 = USP1-UAF1 (Homo sapiens, UniProt O94782); assay: Ubiquitin Rhodamine assay of USP1-UAF1 activity; type: biochemical
Protocol: Certain compounds of the disclosure were assessed for USP1-UAF1 activity in a Ubiquitin Rhodamine assay as described in Biology Example 1.

MDA-MB-436 = assay: Viability assay, BRCA1 mutant cell line MDA-MB-436; type: cell-based; details: Homo sapiens, MDA-MB-436, viability, BRCA1 mutant MDA-MB-436; read-out: MDA-MB-436 rel IC50
Text: (§1) Table 1 also indicates IC50 values in a viability assay for a non-isogenic pair of BRCA1 mutant (column 5-MDA-MB-436) and BRCA1 WT (column 6—HCC1954) cell lines. These values indicate the effect of treatment with compound on cell survival.

HCC1954 = assay: Viability assay, BRCA1 WT cell line HCC1954; type: cell-based; details: Homo sapiens, HCC1954, viability, read-out: HCC1954 rel IC50
Text: as §1

monoubiquitinated PCNA = assay: AlphaLISA assay measuring monoubiquitinated PCNA in MDA-MB-436; type: cell-based; details: Homo sapiens, MDA-MB-436, monoubiquitinated PCNA, read-out: Alpha Lisa IC50
Text: Table 1 also indicates IC50 values for exemplary compounds in an AlphaLISA assay measuring monoubiquitinated PCNA in a BRCA1 mutant cell line (MDA-MB-436; column 7).

USP1-UAF1, sequence (O94782 whole entry): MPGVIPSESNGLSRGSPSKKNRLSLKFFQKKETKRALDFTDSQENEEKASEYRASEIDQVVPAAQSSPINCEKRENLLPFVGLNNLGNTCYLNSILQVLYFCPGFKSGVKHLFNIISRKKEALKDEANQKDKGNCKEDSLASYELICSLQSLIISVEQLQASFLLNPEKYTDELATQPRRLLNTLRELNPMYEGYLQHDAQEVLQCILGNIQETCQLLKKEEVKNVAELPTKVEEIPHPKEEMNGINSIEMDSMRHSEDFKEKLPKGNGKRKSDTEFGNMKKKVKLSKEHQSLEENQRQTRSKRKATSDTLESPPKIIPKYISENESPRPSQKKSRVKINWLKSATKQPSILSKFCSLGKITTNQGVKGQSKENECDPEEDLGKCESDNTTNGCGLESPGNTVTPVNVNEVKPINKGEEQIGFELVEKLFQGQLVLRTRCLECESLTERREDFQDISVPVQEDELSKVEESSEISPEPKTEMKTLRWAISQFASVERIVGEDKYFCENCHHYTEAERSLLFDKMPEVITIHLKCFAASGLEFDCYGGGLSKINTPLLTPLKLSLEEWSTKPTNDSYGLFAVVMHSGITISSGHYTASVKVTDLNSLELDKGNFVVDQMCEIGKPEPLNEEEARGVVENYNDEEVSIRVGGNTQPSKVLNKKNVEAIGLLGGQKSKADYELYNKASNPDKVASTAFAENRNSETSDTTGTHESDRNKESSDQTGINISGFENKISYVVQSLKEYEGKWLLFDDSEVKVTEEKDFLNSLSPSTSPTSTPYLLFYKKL
USP1-UAF1, sequence (Q8TAF3 whole entry partner): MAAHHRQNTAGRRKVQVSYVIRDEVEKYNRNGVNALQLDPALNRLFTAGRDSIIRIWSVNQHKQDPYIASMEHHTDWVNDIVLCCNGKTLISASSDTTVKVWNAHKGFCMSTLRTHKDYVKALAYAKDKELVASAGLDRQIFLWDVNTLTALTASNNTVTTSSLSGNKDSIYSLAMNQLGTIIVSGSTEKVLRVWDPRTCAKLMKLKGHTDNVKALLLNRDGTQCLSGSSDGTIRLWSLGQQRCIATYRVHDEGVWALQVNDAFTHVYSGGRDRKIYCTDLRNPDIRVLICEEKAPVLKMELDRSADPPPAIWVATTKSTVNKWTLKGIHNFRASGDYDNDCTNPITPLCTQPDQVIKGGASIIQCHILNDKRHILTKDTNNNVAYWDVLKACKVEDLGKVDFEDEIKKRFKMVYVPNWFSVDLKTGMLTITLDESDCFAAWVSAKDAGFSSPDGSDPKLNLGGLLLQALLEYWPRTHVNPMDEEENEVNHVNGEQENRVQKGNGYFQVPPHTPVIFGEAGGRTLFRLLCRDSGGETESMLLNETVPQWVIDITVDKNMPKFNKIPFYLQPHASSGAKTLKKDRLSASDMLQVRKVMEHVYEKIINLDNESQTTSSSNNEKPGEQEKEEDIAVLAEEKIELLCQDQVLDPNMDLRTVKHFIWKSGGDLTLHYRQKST

Structure (SMILES)	IC50 (USP1-UAF1) [nM]	IC50 (MDA-MB-436) [nM]	IC50 (HCC1954) [nM]	IC50 (monoubiquitinated PCNA) [nM]
Cn1cc(C(F)(F)F)nc1-c1ccc(Cn2c(=N)n(C)c3cnc(-c4cccnc4OC(F)F)nc32)cc1 [Example T-082, 2-[2-(difluoromethoxy)-3-pyridyl]-7-methyl-9-[[4-[1-methyl-4-(trifluoromethyl)imidazol-2-yl]phenyl]methyl]purin-8-imine]	< 30	< 100	≥ 10000	< 100
CC(C)c1ccccc1-c1nc(C(F)(F)F)c2c(n1)n(Cc1ccc(-c3nc(C(F)(F)F)cn3C)cc1)c(=N)n2C [Example T-084]	< 30	100 to 250	250 to 10000	100 to 250
COc1nc(C#N)ccc1-c1ncc2c(n1)n(Cc1ccc(-c3nc(C(F)(F)F)cn3C)cc1)c(=N)n2C [Example T-085]	100 to 10000	250 to 10000	250 to 10000	250 to 10000
Cn1cc(C(F)(F)F)nc1-c1ccc(Cn2c(=N)n(C)c3cnc(-c4ccccc4C4CC4)nc32)cc1 [Example T-087, 2-(2-cyclopropylphenyl)-7-methyl-9-[[4-[1-methyl-4-(trifluoromethyl)imidazol-2-yl]phenyl]methyl]purin-8-imine]	< 30	< 100	250 to 10000	< 100
COc1ncccc1-c1ncc2c(n1)n(Cc1ccc(-c3nc(C(F)(F)F)cn3C)cc1)c(=N)n2C [Example T-090]	100 to 10000	250 to 10000	≥ 10000	250 to 10000
Cc1cc(Cn2c(=N)n(C)c3cnc(-c4ccccc4C(F)(F)F)nc32)ccc1-c1nc(C(F)(F)F)c[nH]1 [Example T-092]	30 to 100	250 to 10000	250 to 10000	250 to 10000
COc1ncccc1-c1ncc2c(n1)n(Cc1ccc(-c3nc(C(F)(F)F)cn3CCF)cc1)c(=N)n2C [Example T-093]	100 to 10000	250 to 10000	≥ 10000	250 to 10000
CCOc1cc(C(F)(F)F)nn1-c1ccc(Cn2c(=N)n(C)c3cnc(-c4c(OC)ncnc4C4CC4)nc32)cc1 [Example T-094]	< 30	< 100	≥ 10000	< 100
COc1ncnc(C2CC2)c1-c1ncc2c(n1)n(Cc1ccc(-c3nc(C(F)(F)F)cn3C)cc1)c(=N)n2CC(F)(F)F [Example T-095, 2-(4-cyclopropyl-6-methoxy-pyrimidin-5-yl)-9-[[4-[1-methyl-4-(trifluoromethyl)imidazol-2-yl]phenyl]methyl]-7-(2,2,2-trifluoroethyl)purin-8-imine]	30 to 100	< 100	≥ 10000	< 100
COc1ncccc1-c1ncc2c(n1)n(Cc1ccc(-c3nc(C(F)(F)F)cn3C)cc1)c(=N)n2CC(F)(F)F [Example T-097, 2-(2-methoxy-3-pyridyl)-9-[[4-[1-methyl-4-(trifluoromethyl)imidazol-2-yl]phenyl]methyl]-7-(2,2,2-trifluoroethyl)purin-8-imine]	30 to 100	100 to 250	≥ 10000	250 to 10000
COc1ncnc(C2CC2)c1-c1ncc2c(n1)n(Cc1ccc(-n3nc(C(F)(F)F)cc3C)cc1)c(=N)n2CC(F)(F)F [Example T-098, 2-(4-cyclopropyl-6-methoxy-pyrimidin-5-yl)-9-[[4-[5-methyl-3-(trifluoromethyl)pyrazol-1-yl]phenyl]methyl]-7-(2,2,2-trifluoroethyl)purin-8-imine]	30 to 100	< 100	≥ 10000	100 to 250
CC(C)c1ccccc1-c1ncc2c(n1)n(Cc1ccc(-c3nc(C(F)(F)F)cn3C3CN(C)C3)cc1)c(=N)n2C [Example T-099, 2-(2-isopropylphenyl)-7-methyl-9-(4-(1-(1-methylazetidin-3-yl)-4-(trifluoromethyl)-1H-imidazol-2-yl)benzyl)-7H-purin-8(9H)-imine]	100 to 10000	< 100	≥ 10000	100 to 250

— patent US20240059689A1, “PURINE DERIVATIVES AS ANTICANCER AGENTS” (Tango Therapeutics, Inc., priority 2021, published 2024)
